Experimental data reported in patent publication US20060188938A1, “Compounds for inhibiting beta-amyloid production and methods of identifying the compounds” (priority 2005, published 2006).

Key:
[1] = test system: β-amyloid production by 7W WT APP751 CHO cells; assay: Screening of dihydropyridine compounds of Table 2, Aβ1-40 and Aβ1-42 (Example 5); type: cell-based, Chinese hamster; conditions: for concentration of Aβ1-40 or Aβ1-42 compared to control: 3, 10, 30 and 100 μM, 24 hours (FIGS. 22A, 22B, 23A, 23B); for concentration of Aβ1-40 compared to control: 3 and 10 μM, 24 hours (FIG. 24)
Protocol: (§1) The 7W WT APP751 CHO cells were plated in 24-well cell culture plates in quadruplicate, containing 1 ml of culture medium, and treated with various calcium channel blocker compounds for 4 hours, 24 hours or 48 hours at 37° C. and 5% CO2. All test compounds were diluted in dimethyl sulfoxide (DMSO) before being added to the cultured confluent 7W WT APP751 CHO cells. The culture medium was collected and diluted 5-fold for the 4 hours assay and 50-fold for the 24 hour assay before being assayed by ELISAs for Aβ1-40 and Aβ1-42, respectively. Concentrations of Aβ1-40 and Aβ1-42, expressed in pg/ml, were determined using commercially available ELISAs (Biosource, CA) in a colorimetric assay using labeled antibodies detected spectrophotometrically.
The screening of dihydropyridine compounds was conducted according to the procedure described in Example 1. Each compound was added to confluent cells to a final concentration of 3, 10, 30 or 100 μM and tested. Each of these compounds was added to confluent cells to a final concentration of 3 μM (noted as “C” in FIG. 24) or 10 μM (noted as “B” in FIG. 24).

[2] = test system: Tg APPsw mice; conditions: Tg APPsw mice given ibuprofen; cited from earlier work
[3] = test system: β-amyloid production by 7W WT APP751 CHO cells; assay: Measurement of Aβ1-40 and Aβ1-42 by ELISA in culture medium (Example 1, calcium channel blockers); type: cell-based, Chinese hamster
Protocol: Chinese hamster ovary (CHO) cells, stably transfected with human APP751 (7W WT APP751 CHO cells) were used. See, e.g., Koo and Squazzo, J. Biol. Chem., Vol. 269, Issue 26, 17386-17389, July, 1994. The cells were maintained in DMEM medium supplemented with 10% fetal bovine serum and 1× mixture of penicillin/streptomycin/fungizone/glutamine mixture (Cambrex, MD) geneticin as selecting agent in 75 cm^2 cell culture flasks.
as §1
G-sec Inhib XIX, SKF 96365, 2-APB, felodipine, FPL, clotrimazole, tetrandrine, R24571, and econazole are available, as Calbiochem products from EMD Biosciences, Inc., La Jolla, Calif.; nilvadipine, nitrendipine and amlodipine (amlodipine besylate) are available, e.g., from Fujisawa, Osaka, Japan; thapsigargin, BAPTA-AM and TA9 (Tyrphostin A9) are available, e.g., as a Sigma product from Sigma-Aldrich Corp., St. Louis, Mo.; and felodipine, diltiazem, S(−)Bay K8644, R(+)Bay K8644, MRS 1845, SR 33805, loperamide, and isradipine are available from Tocris Cookson Inc., Ellisville, Mo.

Row | SMILES | concentration of Aβ1-40 or Aβ1-42 compared to control [1] | concentration of Aβ1-40 compared to control [1] | further results
1 | CC1=C(C(=O)OC(C)(C)C)C(c2ccccc2Br)C(C(=O)OC(C)(C)C)=C(C)N1 [Example 2-32, Di-tert-butyl 4-(2-bromophenyl)-1,4-dihydro-2,6-dimethylpyridine-3,5-dicarboxylate] | decreased |  | 
2 | CCOC(=O)C1=C(C)NC(C)=C(C(=O)OCC)C1c1ccccc1F [Example 2-27, Diethyl 4-(2-fluorophenyl)-1,4-dihydro-2,6-dimethylpyridine-3,5-dicarboxylate] | decreased |  | 
3 | CCOC(=O)C1=C(C)NC(C)=C(C(=O)OCC)C1c1cc(Br)ccc1F [Example 3-41, Diethyl 4-(5-bromo-2-fluorophenyl)-1,4-dihydro-2,6-dimethylpyridine-3,5-dicarboxylate] |  | decreased | 
4 | CC1=C(C(=O)OC(C)(C)C)C(c2cc(Br)ccc2F)C(C(=O)OC(C)(C)C)=C(C)N1 [Example 3-42] |  | decreased | 
5 | CC1=C(C(=O)OC(C)(C)C)C(c2ccccc2F)C(C(=O)OC(C)(C)C)=C(C)N1 [Example 2-28, Di-tert-butyl 4-(2-fluorophenyl)-1,4-dihydro-2,6-dimethylpyridine-3,5-dicarboxylate] | decreased |  | melting point: 201 to 202 °C
6 | COCCOC(=O)C1=C(C)NC(C)=C(C(=O)OCCOC)C1c1ccccc1Cl [Example 2-19] | decreased |  | 
7 | COCCOC(=O)C1=C(C)NC(C)=C(C(=O)OCCOC)C1c1cccc(Br)c1 [Example 3-37] |  | decreased | 
8 | CCOC(=O)C1=C(C)NC(C)=C(C(=O)OCC)C1c1ccccc1[N+](=O)[O-] [Example 2-29, Diethyl 1,4-dihydro-2,6-dimethyl-4-(2-nitrophenyl)pyridine-3,5-dicarboxylate] | decreased |  | melting point: 120 to 121 °C
9 | CC1=C(C(=O)OC(C)(C)C)C(c2ccc(Br)cc2F)C(C(=O)OC(C)(C)C)=C(C)N1 [Example 3-34, Di-tert-butyl 4-(4-bromo-2-fluorophenyl)-1,4-dihydro-2,6-dimethylpyridine-3,5-dicarboxylate] |  | decreased | 
10 | CCOC(=O)C1=C(C)NC(C)=C(C(=O)OCC)C1c1ccc(Br)cc1F [Example 3-33] |  | decreased | 
11 | CC(C)Cc1ccc(C(C)C(=O)O)cc1 (centres unmarked) [ibuprofen] |  |  | β-amyloid deposits, astrocytosis, and dystrophic neurites [2]: reduction
12 | CC1=C(C(=O)OC(C)(C)C)C(c2ccccc2[N+](=O)[O-])C(C(=O)OC(C)(C)C)=C(C)N1 [Example 2-33, Di-tert-butyl 1,4-dihydro-2,6-dimethyl-4-(2-nitrophenyl)pyridine-3,5-dicarboxylate] | decreased |  | 
13 | CCOC(=O)C1=C(C)NC(C)=C(C(=O)OCC)C1c1ccccc1Br [Example 2-23, Diethyl 4-(2-bromophenyl)-1,4-dihydro-2,6-dimethylpyridine-3,5-dicarboxylate] | decreased |  | 
14 | COCCOC(=O)C1=C(C)NC(C)=C(C(=O)OCCOC)C1c1ccc(Br)cc1 [Example 3-38, Bis(2-methoxyethyl) 4-(4-bromophenyl)-1,4-dihydro-2,6-dimethylpyridine-3,5-dicarboxylate] |  | decreased | 
15 | CC1=C(C(=O)OC(C)(C)C)C(c2cccc(F)c2F)C(C(=O)OC(C)(C)C)=C(C)N1 [Example 3-23] |  | decreased | 
16 | COc1ccc(CCCOC(Cn2ccnc2)c2ccc(OC)cc2)cc1.Cl (stereo not drawn) [SKF 96365, 1-[beta-[3-(4-methoxyphenyl)propoxy]-4-methoxyphenethyl]-1H-imidazole hydrochloride] |  |  | concentration of Aβ1-40 compared to controls ([3]; 15 μM, 24 hours (FIG. 1B)): significantly decreased; concentration of Aβ1-40 compared to controls ([3]; 30 μM (FIG. 2)): significantly decreased; concentration of Aβ1-42 compared to controls ([3]; 30 μM (FIG. 2)): significantly decreased; concentration of total β-amyloid compared to controls ([3]; 30 μM (FIG. 2)): significantly decreased; concentration of Aβ1-40 compared to controls ([3]; 30 μM, 24 hours (FIG. 1B)): significantly decreased
17 | CCOC(=O)C1=C(C)NC(C)=C(C(=O)OCC)C1c1cccc(F)c1F [Example 3-22] |  | decreased | 
